Tested on: CD1 Mice
Test: toxicity in healthy mice: weight loss after a single intravenous dose, observed for seven days
Type: in vivo, mouse
Details: single 20 mg/kg dose intravenously
Method: CD1 Mice were injected intravenously with a single 20 mg/kg dose each of compounds 2a, 2b, daunorubicin, and vehicle and observed for seven days, before euthanization. […] Thus, compounds of the invention appear to be less toxic than Daunorubicin when administered to healthy mice.

| Compound | weight loss as compared with the control group |
| --- | --- |
| COc1cccc2c1C(=O)c1c(O)c3c(c(O)c1C2=O)C[C@@](O)(C(C)=O)C[C@@H]3O[C@H]1C[C@H](N)[C@H](O)[C@H](C)O1 [Daunorubicin, reference compound] | Significant weight loss |
| COc1cccc2c1C(=O)c1c(O)c3c(c(O)c1C2=O)C[C@@](O)(C(C)=O)C[C@@H]3O[C@H]1CC2[C@H](OCOCN2C(=O)OCc2cnc([N+](=O)[O-])n2C)[C@H](C)O1 (stereo partly drawn) [Compound 2a] | did not undergo significant weight loss |
| COc1cccc2c1C(=O)c1c(O)c3c(c(O)c1C2=O)C[C@@](O)(C(C)=O)C[C@@H]3O[C@H]1CC2[C@H](OCOCN2C(=O)OCc2ncc([N+](=O)[O-])n2C)[C@H](C)O1 (stereo partly drawn) [Compound 2b] | did not undergo significant weight loss |

Reference: patent US20080132458A1, “Hypoxia-Activated Anti-Cancer Agents” (Threshold Pharmaceuticals, Inc., priority 2004, published 2008)
